# Experimental data: US20090325219A1, “DEVICE, SYSTEM AND ASSAY FOR MEASURING CELL MOTILITY” (The Queen's University of Belfast, priority 2006, published 2009)
# “Also recorded” adds a separate entry of the source.
# Assays:
# Assay type in all cases: cell-based, rat
# AY-27 cells [1] = experiment: Assay of present invention (motility towards agarose chemo-attractant matrix); details: compared to Mock-TGF and SdM
# Description: Ten millimetre coverslips were seeded with AY-27 cells at a density of 5×10^5 and grown to 100% confluency in 12-well plates. The AY-27 cells at 100% confluency on 10 mm coverslips were removed (A) and washed vigorously using SdM medium (B).
# In a separate 12-well culture plate, 1 ml of heated 2% agarose matrix consisting of 50% FCS and 50% supplemented RPMI thoroughly mixed was pipetted into each well, and allowed to cool and solidify (C).
# A sterile 12 mm diameter metal ring was then used to cut out a circular area in the centre of the matrix (D & E) to provide a cell receiving zone and also to expose a portion of the supporting substrate to form the bridging portion between the cell receiving zone and the agent receiving matrix.
# AY-27 cells on the 10 mm coverslip were then placed into the empty tissue receiving zone from which the agarose had been removed (F) such that the sample is spaced apart from and surrounded by the agarose (chemo-attractant agent receiving matrix).
# An indentation provided in the cell receiving zone, allows reproducible locating of the coverslip including the cells to be tested in the cell receiving zone. The indentation is of suitable depth such that the top surface of the located slide is substantially flush with surrounding surface of the receiving surface. […]
# AY-27 cells [2] = experiment: Conventional scratch wound assay; details: compared to SdM and Mock-TGF
# Description: Sub-confluent AY-27 cells were detached and 5×10^6 were seeded into 6-well tissue culture plates. The cells were grown to 100% confluency before treatment with Mock-TGF, SdM or 3 ng/ml TGF-β1 in duplicates for 24 h and 48 h. An in vitro “scratch wound” was created by scraping the confluent cell monolayer with a sterile pipette tip to make an approximate 1.0 mm gap. Three fixed points were marked in each well and phase-contrast images were captured at these same points over the 24 h and 48 h treatment course. The area of cells that had migrated beyond the ‘wound’ was estimated by superimposing a 5 mm×5 mm grid over the ‘wound’, and this was expressed as percentage when divided with the area of the ‘wound’.
# (§1) FIG. 10 details results of a conventional motility assay (A) and the Matrigel invasion assay (B). […] Cells were treated with Mock-TGF (i), SdM (ii) or 3 ng.ml TGF-β1 (iii) and images were captured after 24 h and 48 h. The percentage of wound healing was calculated by counting the number of boxes at least half covered by cells in the 5 mm×5 mm grid-rule (A). […] Cells were treated with Mock-TGF (i), SdM (ii) or TGF-β1 (iii) and cells that passed successfully through the matrigel membrane after 24 h and after 48 h were Giemsa stained and enumerated.
# AY-27 cells [3] = experiment: Conventional Matrigel invasion assay; details: 24 h and 48 h, compared to Mock-TGF and SdM, p<0.05 Student's t-test
# Description: FCS (10%) in 0.75 ml RPMI-1640 acted as the chemo-attractant. This was added to the lower compartment of 24-well BioCoat Matrigel invasion chambers (Becton Dickinson Labware, Bedford, Mass.) with an 8-μm pore polycarbonate filter coated with Matrigel. In the upper compartment, 8×10^5 cells/well in SdM were placed in triplicate wells and incubated for 24 h and 48 h at 37° C. in a humidified incubator with 5% CO2. After incubation, the cells that had passed through the filter into the lower wells were stained with Speedy-Diff Rapid Giemsa (Clin-Tech Ltd, Essex, UK. #61078, #61079, #61080) and counted by assessing 10 random high power fields images using ×400 magnification on a Leitz Labrodux K (Germany) light microscope.
# as §1
substance,measurement,setting,value
"TGF-β1: Recombinant human TGF-β1 (R&D systems), a known promoter to tumour progression",numbers of migrating cells (grid boxes covered),"AY-27 cells [1]; 3 ng/ml TGF-β1, 24 h",no significant differences
same,numbers of migrating cells (grid boxes covered),"AY-27 cells [1]; 3 ng/ml TGF-β1, 48 h, p<0.05 student t-test",significantly more cells had migrated; also recorded: significantly greater numbers
same,motility / wound closure,"AY-27 cells [2]; 3 ng/ml TGF-β1, 24 h",earlier wound closure
same,motility / wound closure,"AY-27 cells [2]; 3 ng/ml TGF-β1, 48 h",this effect did not persist
same,cells migrated across the matrigel,AY-27 cells [3],Significantly more cells were present in the membrane; also recorded: significantly more TGF-β1 treated cells migrated across the matrigel
